From article PMC12748989 (Nature Communications, 2025)

Experiments:
PBMC = settings: 12.5 µM

Compound	Average (percentage cell inhibition), Dmastoparan MDA-MB231 12.5uM (MDA-MB-231 cells) [%]	Average (percentage cell inhibition), Mastoparan PBMC (PBMC) [%]
CC[C@H](C)[C@H](N)C(=O)N[C@@H](CC(N)=O)C(=O)N[C@@H](CC(C)C)C(=O)N[C@@H](CCCCN)C(=O)N[C@@H](C)C(=O)N[C@@H](CC(C)C)C(=O)N[C@@H](C)C(=O)N[C@@H](C)C(=O)N[C@@H](CC(C)C)C(=O)N[C@@H](C)C(=O)N[C@@H](CCCCN)C(=O)N[C@@H](CCC(=O)O)C(=O)N[C@H](C(=O)N[C@@H](CC(C)C)C(N)=O)[C@@H](C)CC [E12]	21.4723	4.97
CC[C@H](C)[C@H](N)C(=O)N[C@@H](CC(N)=O)C(=O)N[C@@H](CC(C)C)C(=O)N[C@@H](CCCCN)C(=O)N[C@@H](C)C(=O)N[C@@H](CC(C)C)C(=O)N[C@@H](C)C(=O)N[C@@H](C)C(=O)N[C@H](C(=O)N[C@@H](C)C(=O)N[C@@H](CCCCN)C(=O)N[C@@H](CCCCN)C(=O)N[C@H](C(=O)N[C@@H](CC(C)C)C(N)=O)[C@@H](C)CC)[C@@H](C)O [T9]	18.2148	2.309
CC[C@H](C)[C@H](NC(=O)[C@H](CCCCN)NC(=O)[C@H](CCCCN)NC(=O)[C@H](C)NC(=O)[C@H](CC(C)C)NC(=O)[C@H](C)NC(=O)[C@H](C)NC(=O)[C@H](CC(C)C)NC(=O)[C@H](C)NC(=O)[C@H](CCCCN)NC(=O)[C@H](CC(C)C)NC(=O)[C@H](CC(N)=O)NC(=O)[C@@H](N)CC(N)=O)C(=O)N[C@@H](CC(C)C)C(N)=O [N1]	25.1532	8.003
CC[C@H](C)[C@H](N)C(=O)N[C@@H](CC(N)=O)C(=O)N[C@@H](CC(C)C)C(=O)N[C@@H](CCCCN)C(=O)N[C@@H](C)C(=O)N[C@H](C(=O)N[C@@H](C)C(=O)N[C@@H](C)C(=O)N[C@@H](CC(C)C)C(=O)N[C@@H](C)C(=O)N[C@@H](CCCCN)C(=O)N[C@@H](CCCCN)C(=O)N[C@H](C(=O)N[C@@H](CC(C)C)C(N)=O)[C@@H](C)CC)[C@@H](C)CC [I6]	31.3138	13.3589
CC[C@H](C)[C@H](NC(=O)[C@H](CCCCN)NC(=O)[C@H](CCCCN)NC(=O)[C@H](C)NC(=O)[C@H](CC(C)C)NC(=O)[C@H](C)NC(=O)[C@H](C)NC(=O)[C@H](CC(C)C)NC(=O)[C@H](C)NC(=O)[C@H](CCCCN)NC(=O)[C@H](CC(C)C)NC(=O)[C@H](CC(N)=O)NC(=O)[C@@H](N)Cc1c[nH]cn1)C(=O)N[C@@H](CC(C)C)C(N)=O [H1]	37.0221	0.9359
H-INLKALAALAKKLL-NH2 [L13]	83.7429	38.8767
CC[C@H](C)[C@H](N)C(=O)N[C@@H](CC(N)=O)C(=O)N[C@@H](CC(C)C)C(=O)N[C@@H](CCCCN)C(=O)N[C@@H](C)C(=O)N[C@@H](CC(C)C)C(=O)N[C@@H](C)C(=O)N[C@@H](C)C(=O)N[C@@H](CC(C)C)C(=O)N[C@@H](Cc1ccc(O)cc1)C(=O)N[C@@H](CCCCN)C(=O)N[C@@H](CCCCN)C(=O)N[C@H](C(=O)N[C@@H](CC(C)C)C(N)=O)[C@@H](C)CC [Y10]	27.1013	11.2083
CC[C@H](C)[C@H](N)C(=O)N[C@@H](CC(N)=O)C(=O)N[C@@H](CC(C)C)C(=O)N[C@@H](CCCCN)C(=O)N[C@H](C(=O)N[C@@H](CC(C)C)C(=O)N[C@@H](C)C(=O)N[C@@H](C)C(=O)N[C@@H](CC(C)C)C(=O)N[C@@H](C)C(=O)N[C@@H](CCCCN)C(=O)N[C@@H](CCCCN)C(=O)N[C@H](C(=O)N[C@@H](CC(C)C)C(N)=O)[C@@H](C)CC)[C@@H](C)CC [I5]	71.3869	29.3206
CC[C@H](C)[C@H](N)C(=O)N[C@@H](CC(N)=O)C(=O)N[C@@H](CC(C)C)C(=O)N[C@@H](CCCCN)C(=O)N[C@@H](C)C(=O)N[C@@H](CC(C)C)C(=O)N1CCC[C@H]1C(=O)N[C@@H](C)C(=O)N[C@@H](CC(C)C)C(=O)N[C@@H](C)C(=O)N[C@@H](CCCCN)C(=O)N[C@@H](CCCCN)C(=O)N[C@H](C(=O)N[C@@H](CC(C)C)C(N)=O)[C@@H](C)CC [P7]	-0.6456	-9.322
CC[C@H](C)[C@H](N)C(=O)N[C@@H](CC(N)=O)C(=O)N[C@@H](CC(C)C)C(=O)N[C@@H](CCCCN)C(=O)N[C@@H](C)C(=O)N[C@@H](CC(C)C)C(=O)N[C@@H](C)C(=O)N[C@@H](C)C(=O)N[C@@H](CC(C)C)C(=O)N[C@@H](C)C(=O)N[C@@H](CCCCN)C(=O)N[C@@H](CCCCN)C(=O)N1CCC[C@H]1C(=O)N[C@@H](CC(C)C)C(N)=O [P13]	-16.5854	-11.6187
CC[C@H](C)[C@H](N)C(=O)N[C@@H](CC(N)=O)C(=O)N[C@@H](C)C(=O)N[C@@H](CCCCN)C(=O)N[C@@H](C)C(=O)N[C@@H](CC(C)C)C(=O)N[C@@H](C)C(=O)N[C@@H](C)C(=O)N[C@@H](CC(C)C)C(=O)N[C@@H](C)C(=O)N[C@@H](CCCCN)C(=O)N[C@@H](CCCCN)C(=O)N[C@H](C(=O)N[C@@H](CC(C)C)C(N)=O)[C@@H](C)CC [A3]	17.9778	-7.622
CC[C@H](C)[C@H](N)C(=O)N[C@@H](CC(N)=O)C(=O)N[C@@H](CC(C)C)C(=O)N[C@@H](CCCCN)C(=O)N[C@@H](C)C(=O)N[C@@H](CC(C)C)C(=O)N[C@@H](C)C(=O)N[C@@H](Cc1ccc(O)cc1)C(=O)N[C@@H](CC(C)C)C(=O)N[C@@H](C)C(=O)N[C@@H](CCCCN)C(=O)N[C@@H](CCCCN)C(=O)N[C@H](C(=O)N[C@@H](CC(C)C)C(N)=O)[C@@H](C)CC [Y8]	50.1841	22.0038
CC[C@H](C)[C@H](N)C(=O)N[C@@H](CC(N)=O)C(=O)N[C@@H](CC(C)C)C(=O)N[C@@H](CCCCN)C(=O)N[C@@H](C)C(=O)N[C@@H](CC(C)C)C(=O)N[C@@H](C)C(=O)N[C@@H](C)C(=O)N[C@@H](CC(C)C)C(=O)N[C@@H](C)C(=O)N[C@@H](CCCCN)C(=O)N[C@@H](CCCCN)C(=O)N[C@@H](CCCCN)C(=O)N[C@@H](CC(C)C)C(N)=O [K13]	29.9957	5
CC[C@H](C)[C@H](N)C(=O)N[C@@H](CC(N)=O)C(=O)N[C@@H](CC(C)C)C(=O)N[C@@H](CCCCN)C(=O)N[C@@H](C)C(=O)N[C@@H](CC(C)C)C(=O)N[C@@H](C)C(=O)N[C@@H](C)C(=O)N[C@@H](CCCCN)C(=O)N[C@@H](C)C(=O)N[C@@H](CCCCN)C(=O)N[C@@H](CCCCN)C(=O)N[C@H](C(=O)N[C@@H](CC(C)C)C(N)=O)[C@@H](C)CC [K9]	18.9586	-2.726
